In PubChem BioAssay AID1963844 (Molecular Pharmacology Branch, DTP, NCI, 2024):

Tested on: 422866-222-R5-J1-PDC complex spheroid viability
Assay: Anticancer human tumor 422866-222-R5-J1-PDC patient-derived pancreatic adenocarcinoma cell line growth inhibition [POLQ]
Conditions: for IC50: curve of first compound; for viability, T/C: stronger effect = lower value
Outline: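 Growth inhibition in 3D: complex spheroids (tumor PDC, HUVEC, MSC) treated with POLQ inhibitor combinations; where Cmax unknown, highest tested concentration 10 microM, except SN-38 at 1 microM.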
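Note: spheroids exposed to compounds for one week before readout.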
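Throughout, for viability, T/C: percent of DMSO vehicle wells luminescence so 100% = untreated viability.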

C=CCn1c(=O)c2cnc(Nc3ccc(N4CCN(C)CC4)cc3)nc2n1-c1cccc(C(C)(C)O)n1 + COC1C(OC(N)=O)C(O)C(Oc2ccc3c(O)c(NC(=O)c4ccc(O)c(CC=C(C)C)c4)c(=O)oc3c2C)OC1(C)C
IC50 (second compound 0.0316 µM): 418 nM | IC50 (second compound 0.1 µM): 304 nM | IC50 (second compound 0.316 µM): 493 nM | IC50 (second compound 1 µM): 471 nM | IC50 (second compound 3.16 µM): 538 nM | IC50 (second compound 10 µM): 356 nM | viability, T/C (second compound 0.0316 µM, first compound 0.00316 µM): 91.1% | viability, T/C (second compound 0.0316 µM, first compound 0.01 µM): 106% | viability, T/C (second compound 0.0316 µM, first compound 0.0316 µM): 96.3% | viability, T/C (second compound 0.0316 µM, first compound 0.1 µM): 93.2% | viability, T/C (second compound 0.0316 µM, first compound 0.316 µM): 54.3% | viability, T/C (second compound 0.0316 µM, first compound 1 µM): 36.6% | viability, T/C (second compound 0.1 µM, first compound 0.00316 µM): 98.8% | viability, T/C (second compound 0.1 µM, first compound 0.01 µM): 105% | viability, T/C (second compound 0.1 µM, first compound 0.0316 µM): 86.2% | viability, T/C (second compound 0.1 µM, first compound 0.1 µM): 79.4% | viability, T/C (second compound 0.1 µM, first compound 0.316 µM): 46.5% | viability, T/C (second compound 0.1 µM, first compound 1 µM): 34.5% | viability, T/C (second compound 0.316 µM, first compound 0.00316 µM): 97.4% | viability, T/C (second compound 0.316 µM, first compound 0.01 µM): 101% | viability, T/C (second compound 0.316 µM, first compound 0.0316 µM): 103% | viability, T/C (second compound 0.316 µM, first compound 0.1 µM): 84.4% | viability, T/C (second compound 0.316 µM, first compound 0.316 µM): 59.1% | viability, T/C (second compound 0.316 µM, first compound 1 µM): 36.6% | viability, T/C (second compound 1 µM, first compound 0.00316 µM): 94.8% | viability, T/C (second compound 1 µM, first compound 0.01 µM): 105% | viability, T/C (second compound 1 µM, first compound 0.0316 µM): 93.8% | viability, T/C (second compound 1 µM, first compound 0.1 µM): 89.5% | viability, T/C (second compound 1 µM, first compound 0.316 µM): 58% | viability, T/C (second compound 1 µM, first compound 1 µM): 34.6% | viability, T/C (second compound 3.16 µM, first compound 0.00316 µM): 96.7% | viability, T/C (second compound 3.16 µM, first compound 0.01 µM): 100% | viability, T/C (second compound 3.16 µM, first compound 0.0316 µM): 91.5% | viability, T/C (second compound 3.16 µM, first compound 0.1 µM): 79% | viability, T/C (second compound 3.16 µM, first compound 0.316 µM): 59.1% | viability, T/C (second compound 3.16 µM, first compound 1 µM): 39.7% | viability, T/C (second compound 10 µM, first compound 0.00316 µM): 95.7% | viability, T/C (second compound 10 µM, first compound 0.01 µM): 84.3% | viability, T/C (second compound 10 µM, first compound 0.0316 µM): 98.2% | viability, T/C (second compound 10 µM, first compound 0.1 µM): 79.9% | viability, T/C (second compound 10 µM, first compound 0.316 µM): 51.9% | viability, T/C (second compound 10 µM, first compound 1 µM): 38.9%
